# Values of other authors, collected in US9138417B2, “Controlled release particles and production method thereof” (priority 2011, dated 2015).
row,SMILES,water solubility
1,"CCCC1COC(Cn2cncn2)(c2ccc(Cl)cc2Cl)O1 (stereo not drawn) [Propiconazole, 1-[2-(2,4-dichlorophenyl)-4-n-propyl-1,3-dioxolane-2-ylmethyl]-1H-1,2,4-triazole]",110 ppm
2,"CCCCNC(=O)OCC#CI [IPBC, 3-iodo-2-propynylbutylcarbamate]",150 ppm
3,C=C(C)C(=O)O [Methacrylic acid],8.9 mass%
